Source: patent US20260355199A1, “COMPOSITIONS AND METHODS FOR TREATING OR PREVENTING NONALCOHOLIC STEATOHEPATITIS (NASH), ANOREXIA, DEPRESSION, ENDOMETRIOSIS, AND OTHER DISEASES OR DISORDERS” (priority 2022, published 2026)
Entries after “also recorded” stand apart in the source; their conditions may differ.

What was measured:
[1] = test system: hM4Di; experiment: Chemogenetic inhibition of AgRP neurons with C21; type: in vivo, mouse; settings: C21 0.5 mg/kg by osmotic pump, TET3 knockdown mice
From the text: To determine the relevance of activated AgRP neurons from TET3 knockdown, the chemogenetic tool of designer receptors exclusively activated by designer drugs (DREADDs) was used. AAV-sgTet3 was co-injected with an AAV containing a Cre-dependent hM4Di-mCherry transgene (AAV-hM4Di) (Krashes, M. J. et al., 2011, Journal of Clinical Investigations, 121:1424-1428) bilaterally into the ARC of Cas9+ mice, followed by implantation of an osmotic pump to infuse DREADD agonist 21 (C21) (Thompson, K. J. et al., 2018, ACS Pharmacology & Translational Science, 1:61-72) or saline (FIG. 9K). AgRP neuron-specific expression of hM4Di was confirmed by immunofluorescence (FIG. 11).
Three days after bilateral ARC co-injection with AAV-sgTet3 and AAV-h4MDi, a mini-osmotic pump (model 1007D, Alzet) was implanted subcutaneously. The osmotic pump was filled with either sterile saline solution or DREADD agonist compound 21 (C21) dihydrochloride (0.5 mg/kg, HB6124-25 mg, Hello Bio). Food intake measurement and ITT were performed at day 5 and day 9 post-injection, respectively. For food intake assays, food pellets were weighed at 10:00 each day for 3 continuous days and an average of three-day food intake was calculated.

[2] = test system: estrogen receptor; settings: cited from earlier work
[3] = test system: TET3 and CD163; experiment: TET3 expression and TET3/CD163 double-positive cells in human MDMs; type: cell-based; settings: for TET3 expression: TGF-β1 10 ng/ml or MCP1 200 ng/ml; for number of TET3/CD163 double-positive cells: TGF-β1 10 ng/ml, 48 h
Method: To prepare CM-HSC and CM-Endo, LX-2 and human endometriosis cells were seeded in 24-well plates (2.5×10^5 cells/well) with their respective growth media and allowed to grow to ~50% confluency. Cells were then washed with PBS and incubated with fresh growth media (500 μl/well) for an additional 24 h. Cell supernatant (CM-HSC/CM-Endo) was collected and immediately used to treat MDMs after 1:1 dilution with their respective growth media. In the control group, only respective growth media were used.
After wash in cold PBS, adherent cells were fixed with 4% paraformaldehyde in PBS for 15 min and permeabilized with 0.4% TritonX-100 for 15 min. Cells were blocked in 5% donkey serum/PBS-T at RT for 30 min and quickly washed once with PBS-T before antibody incubation. Primary antibodies were diluted in 2% donkey serum/PBS-T. For CD163/TET3 double staining, cells were incubated with anti-TET3 (GeneTex, GTX121453, diluted at 1:400 for MDMs; Millipore Sigma, ABE290, diluted at 1:500 for mouse peritoneal macrophages) and anti-CD163 (Abcam, ab156769, diluted at 1:400 for MDMs; Santa Cruz Biotechnology, sc-58965, diluted at 1:200 for peritoneal macrophages) overnight at 4 °C. The next day, cells were washed 3 times with PBS-T and incubated in 0.4% Triton X-100/PBS with donkey anti-Rabbit IgG Fluor 594 (Invitrogen, A-21207, diluted at 1:500) and goat anti-Mouse lgG Fluor 488 (Invitrogen, A-11029, diluted at 1:500) for 1 h at RT. Cells were covered with antifade mounting medium with DAPI (Vector laboratories, H-2000), scoped using a Keyence BZ-X700 fluorescence microscope.
Total RNAs were extracted from cells using PureLink RNA Mini Kit. 0.5-1 μg total RNA was reverse transcribed to cDNA in a reaction volume of 20 μL using PrimeScript RT Reagent Kit. Real-time quantitative PCR was performed in a 15 μL reaction volume containing 0.5-1 μL of cDNA using SsoAdvanced Universal SYBR Green Supermix in a Bio-Rad iCycler. Gene expression levels were normalized against RPLP0.

[4] = test system: TET3 and CD163; experiment: TET3 expression in mouse peritoneal macrophages; type: cell-based; settings: wild-type mouse peritoneal macrophages
Method: Peritoneal macrophages were collected from the peritoneal cavity of WT or Mye-Tet3 ko mice by injecting 10 mL of PBS followed by gentle abdominal massaging for 5 min. Cells were pelleted by centrifugation at 1500×g at 4 °C for 8 min. To remove red blood cells, cells were resuspended in […] (Biolegend, 420302, diluted to 1×) and allowed to stand for 5 min, followed by addition of PBS to stop the reaction and twice wash with PBS by centrifugation. Macrophages were enriched by plating cells in RPMI 1640 supplemented with 10% FBS and 1% Anti-Anti for 2 h at 37 °C in a 5% humidified CO2 tissue culture incubator. Non-adherent cells were then removed with three PBS washes.
After wash in cold PBS, adherent cells were fixed with 4% paraformaldehyde in PBS for 15 min and permeabilized with 0.4% TritonX-100 for 15 min. Cells were blocked in 5% donkey serum/PBS-T at RT for 30 min and quickly washed once with PBS-T before antibody incubation. […] Cells were covered with antifade mounting medium with DAPI (Vector laboratories, H-2000), scoped using a Keyence BZ-X700 fluorescence microscope.

[5] = test system: IL-1β; settings: phase III clinical trial; cited from earlier work
[6] = test system: IL-6 receptor; settings: rats; cited from earlier work

In the case of `Cl.Cl.c1ccc2c(c1)N=C(N1CCNCC1)c1ccccc1N2` [C21], the hyperphagia [1] is reported as “suppressed hyperphagia” and the systemic insulin resistance [1] is reported as “reversed systemic insulin resistance”.
For `CCCCN(C)C(=O)CCCCCCCCCC[C@@H]1Cc2cc(O)ccc2[C@H]2CC[C@]3(C)[C@@H](O)CC[C@H]3[C@H]12` [ICI 164,384], the estrogen receptor degradation [2] is listed as “induces its degradation without affecting its mRNA expression”.
For MCP1: MCP1, also known as CCL2, the TET3 expression [3] was “resulted in similar effects” and the “TET3 expression and TET3/CD163 double-positive cells” value [4] was “increase TET3 expression and TET3/CD163 double-positive cells”.
In the case of “TGF-β1: purified TGF-β1 (PeproTech, 100-21)”, the TET3 expression [3] is reported as “increased TET3 expression; also recorded: increased TET3 mRNA”, the TET3 expression ([3]; listed as TGF-b1) is reported as “increased TET3 expression both at mRNA and protein levels” and the “number of TET3/CD163 double-positive cells” value [3] is reported as “increased TET3 expression and the number of TET3/CD163 double-positive cells; also recorded: increase in the number of TET3/CD163 double-positive cells”. The “number of TET3/CD163 double-positive cells” value ([3]; listed as TGF-b1) was “increase in the number of TET3/CD163 double-positive cells” and the “TET3 expression and TET3/CD163 double-positive cells” value [4] was “increase TET3 expression and TET3/CD163 double-positive cells”.
In the case of “canakinumab: a human monoclonal antibody specific for IL-1β”, the “incident NSCLC and lung cancer mortality” value [5] is listed as “substantially reduced incident NSCLC and lung cancer mortality in a dose-dependent manner”.
In the case of “tocilizumab: an anti-IL-6 receptor monoclonal antibody”, the endometriosis burden [6] is given as “significantly reduced endometriosis burden”.
